IC50 data for 19 compounds are collected here from patent publication US11970511B2, “Tetrahydropyran-based thiodisaccharide mimics as Galectin-3 inhibitors” (BRISTOL-MYERS SQUIBB COMPANY, priority 2018, dated 2024).

Sequence of His-tagged recombinant human Gal-3 (hGal-3) (P17931 whole entry): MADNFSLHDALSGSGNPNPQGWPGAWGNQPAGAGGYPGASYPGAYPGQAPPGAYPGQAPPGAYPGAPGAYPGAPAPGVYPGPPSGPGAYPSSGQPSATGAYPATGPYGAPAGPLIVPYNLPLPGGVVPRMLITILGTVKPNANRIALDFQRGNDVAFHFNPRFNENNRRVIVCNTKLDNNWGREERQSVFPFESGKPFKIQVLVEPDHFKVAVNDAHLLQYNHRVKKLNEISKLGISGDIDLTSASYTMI

The assay has as its target His-tagged recombinant human Gal-3 (hGal-3) (Homo sapiens, UniProt P17931). Kind of assay: Gal-3 HTRF assay: His-tagged hGal-3 binding to B-ASF, Anti-His terbium antibody / Streptavidin d2 detection.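 Further: compound preincubated 30 min with hGal-3, then 1 h with B-ASF, DMSO wells with B-ASF serving as positive control and those lacking B-ASF as negative control.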 The note with it: 15 nM hGal-3, 15 nM B-ASF, three replicates, room temperature.
Turning to `COc1ncc(-c2cn([C@H]3COC[C@@H](S[C@@H]4O[C@H](CO)[C@H](O)[C@H](n5cc(-c6cc(F)c(F)c(F)c6)nn5)[C@H]4OCC(=O)N4CC(O)C4)[C@@H]3O)nn2)cn1` [Example 34, 2-(((2S,3R,4S,5R,6R)-5-hydroxy-2-(((3R,4R,5S)-4-hydroxy-5-(4-(2-methoxypyrimidin-5-yl)-1H-1,2,3-triazol-1-yl)tetrahydro-2H-pyran-3-yl)thio)-6-(hydroxymethyl)-4-(4-(3,4,5-trifluorophenyl)-1H-1,2,3-triazol-1-yl)tetrahydro-2H-pyran-3-yl)oxy)-1-(3-hydroxyazetidin-1-yl)ethan-1-one], the half-maximal inhibitory concentration (IC50) came to 24 nM.
The value for `CO[C@@H]1[C@@H](n2cc(-c3ccncc3)nn2)[C@@H](O)[C@@H](CO)O[C@H]1S[C@@H]1COC[C@H](n2cc(-c3ccccc3)nn2)[C@H]1O` [Example A2, (2R,3R,4S,5R,6S)-6-(((3R,4R,5S)-4-hydroxy-5-(4-phenyl-1H-1,2,3-triazol-1-yl)tetrahydro-2H-pyran-3-yl)thio)-2-(hydroxymethyl)-5-methoxy-4-(4-(pyridin-4-yl)-1H-1,2,3-triazol-1-yl)tetrahydro-2H-pyran-3-ol] was 1100 nM.
`COc1c(F)c(F)c(C(=O)N[C@H]2[C@@H](O)[C@@H](CO)O[C@@H](S[C@@H]3COC[C@H](n4cc(-c5ccccc5)nn4)[C@H]3O)[C@@H]2OC)c(F)c1F` [Example A13, 2,3,5,6-tetrafluoro-N-((2R,3R,4S,5R,6S)-3-hydroxy-6-(((3R,4R,5S)-4-hydroxy-5-(4-phenyl-1H-1,2,3-triazol-1-yl)tetrahydro-2H-pyran-3-yl)thio)-2-(hydroxymethyl)-5-methoxytetrahydro-2H-pyran-4-yl)-4-methoxybenzamide]: the IC50 was 570 nM.
The value for `COc1ncc(-c2cn([C@H]3COC[C@@H](S[C@@H]4O[C@H](CO)[C@H](O)[C@H](n5cc(-c6cc(F)c(F)c(F)c6)nn5)[C@H]4OCC(=O)N4CCOCC4)[C@@H]3O)nn2)cn1` [Example 31, 2-(((2S,3R,4S,5R,6R)-5-hydroxy-2-(((3R,4R,5S)-4-hydroxy-5-(4-(2-methoxypyrimidin-5-yl)-1H-1,2,3-triazol-1-yl)tetrahydro-2H-pyran-3-yl)thio)-6-(hydroxymethyl)-4-(4-(3,4,5-trifluorophenyl)-1H-1,2,3-triazol-1-yl)tetrahydro-2H-pyran-3-yl)oxy)-1-morpholinoethan-1-one] was 13 nM.
As to `CO[C@@H]1[C@@H](n2cc(-c3cncs3)nn2)[C@@H](O)[C@@H](CO)O[C@H]1S[C@@H]1COC[C@H](n2cc(-c3ccccc3)nn2)[C@H]1O` [Example A7, (2R,3R,4S,5R,6S)-6-(((3R,4R,5S)-4-hydroxy-5-(4-phenyl-1H-1,2,3-triazol-1-yl)tetrahydro-2H-pyran-3-yl)thio)-2-(hydroxymethyl)-5-methoxy-4-(4-(thiazol-5-yl)-1H-1,2,3-triazol-1-yl)tetrahydro-2H-pyran-3-ol], the IC50 was determined as 840 nM.
The value for `CO[C@@H]1[C@@H](n2cc(-c3cccnc3)nn2)[C@@H](O)[C@@H](CO)O[C@H]1S[C@@H]1COC[C@H](n2cc(-c3ccccc3)nn2)[C@H]1O` [Example A1, (2R,3R,4S,5R,6S)-6-(((3R,4R,5S)-4-hydroxy-5-(4-phenyl-1H-1,2,3-triazol-1-yl)tetrahydro-2H-pyran-3-yl)thio)-2-(hydroxymethyl)-5-methoxy-4-(4-(pyridin-3-yl)-1H-1,2,3-triazol-1-yl)tetrahydro-2H-pyran-3-ol] was 1100 nM; that for `COC1C(SC2CNCC(n3cc(-c4cccc(F)c4)nn3)C2O)OC(CO)C(O)C1n1cc(-c2cc(F)c(F)c(F)c2)nn1` (stereo not shown) [Example B1] was 67 nM; that for `CO[C@@H]1[C@@H](n2cc(-c3ccc4ccccc4c3)nn2)[C@@H](O)[C@@H](CO)O[C@H]1S[C@@H]1COC[C@H](n2cc(-c3ccccc3)nn2)[C@H]1O` [Example A10, (2R,3R,4S,5R,6S)-6-(((3R,4R,5S)-4-hydroxy-5-(4-phenyl-1H-1,2,3-triazol-1-yl)tetrahydro-2H-pyran-3-yl)thio)-2-(hydroxymethyl)-5-methoxy-4-(4-(naphthalen-2-yl)-1H-1,2,3-triazol-1-yl)tetrahydro-2H-pyran-3-ol] was 330 nM.
The result for `COc1ncc(-c2cn([C@H]3COC[C@@H](S[C@@H]4O[C@H](CO)[C@H](O)[C@H](n5cc(-c6cc(F)c(F)c(F)c6)nn5)[C@H]4OCC(=O)O)[C@@H]3O)nn2)cn1` [Example 30, 2-(((2S,3R,4S,5R,6R)-5-hydroxy-2-(((3R,4R,5S)-4-hydroxy-5-(4-(2-methoxypyrimidin-5-yl)-1H-1,2,3-triazol-1-yl)tetrahydro-2H-pyran-3-yl)thio)-6-(hydroxymethyl)-4-(4-(3,4,5-trifluorophenyl)-1H-1,2,3-triazol-1-yl)tetrahydro-2H-pyran-3-yl)oxy)acetic acid] reads 8 nM; that for `CN(C(=O)COC1C(SC2COCC(n3cc(-c4cncnc4)nn3)C2O)OC(CO)C(O)C1n1cc(-c2cc(F)c(F)c(F)c2)nn1)c1ccccc1` [Example 29, 2-(((2S,3R,4S,5R,6R)-5-hydroxy-2-(((3R,4R,5S)-4-hydroxy-5-(4-(pyrimidin-5-yl)-1H-1,2,3-triazol-1-yl)tetrahydro-2H-pyran-3-yl)thio)-6-(hydroxymethy)-4-(4-(3,4,5-trifluorophenyl)-1H-1,2,3-triazol-1-yl)-2H-pyran-3-yl)oxy)-N-methyl-N-phenylacetamide], 25 nM.
Take `COc1ncc(-c2cn(C3COCC(SC4OC(CO)C(O)C(n5cc(-c6cc(F)c(F)c(F)c6)nn5)C4OCC(=O)N4CCS(=O)(=O)CC4)C3O)nn2)cn1` [Example 33, 1-(1,1-dioxidothiomorpholino)-2-(((2S,3R,4S,5R,6R)-5-hydroxy-2-(((3R,4R,5S)-4-hydroxy-5-(4-(2-methoxypyrimidin-5-yl)-1-1,2,3-triazol-1-yl)tetrahydro-2H-pyran-3-yl)thio)-6-(hydroxymethyl)-4-(4-(3,4,5-trifluorophenyl)-1H-1,2,3-triazol-1-yl)tetrahydro-2H-pyran-3-yl)oxy)ethan-1-one]: the IC50 amounted to 12 nM.
Regarding `O=C(CO[C@@H]1[C@@H](n2cc(-c3cc(F)c(F)c(F)c3)nn2)[C@@H](O)[C@@H](CO)O[C@H]1S[C@@H]1COC[C@H](n2cc(-c3cncnc3)nn2)[C@H]1O)N1CCOCC1` [Example 28, 2-(((2S,3R,4S,5R,6R)-5-hydroxy-2-(((3R,4R,5S)-4-hydroxy-5-(4-(pyrimidin-5-yl)-1H-1,2,3-triazol-1-yl)tetrahydro-2H-pyran-3-yl)thio)-6-(hydroxymethyl)-4-(4-(3,4,5-trifluorophenyl)-1H-1,2,3-triazol-1-yl)tetrahydro-2H-pyran-3-yl)oxy)-1-morpholinoethan-1-one], the 50% inhibitory concentration (IC50) is 10 nM.
The value for `COC(=O)COC1C(SC2COCC(n3cc(-c4cncnc4)nn3)C2O)OC(CO)C(O)C1n1cc(-c2cc(F)c(F)c(F)c2)nn1` [Example 27, methyl 2-(((2S,3R,4S,5R,6R)-5-hydroxy-2-(((3R,4R,5S)-4-hydroxy-5-(4-(pyriin-5-yl)-1H-1,2,3-triazol-1-yl)tetrahydro-2H-pyran-3-yl)thio)-6-(hydroxymethyl)-4-(4-(3,4,5-trifluorophenyl)-1H-1,2,3-triazol-1-yl)tetrahydro-2H-pyran-3-yl)oxy)acetate] was 17 nM.
`COc1ncc(-c2cn([C@H]3COC[C@@H](S[C@@H]4O[C@H](CO)[C@H](O)[C@H](n5cc(-c6cc(F)c(F)c(F)c6)nn5)[C@H]4OCC(=O)N4CCC4)[C@@H]3O)nn2)cn1` [Example 35, 1-(azetidin-1-yl)-2-(((2S,3R,4S,5R,6R)-5-hydroxy-2-(((3R,4R,5S)-4-hydroxy-5-(4-(2-methoxypyrimidin-5-yl)-1H-1,2,3-triazol-1-yl)tetrahydro-2H-pyran-3-yl)thio)-6-(hydroxymethyl)-4-(4-(3,4,5-trifluorophenyl)-1H-1,2,3-triazol-1-yl)tetrahydro-2H-pyran-3-yl)oxy)ethan-1-one]: the IC50 worked out at 32 nM.
Take `COC1C(SC2CN(C(C)=O)CC(n3cc(-c4cccc(F)c4)nn3)C2O)OC(CO)C(O)C1n1cc(-c2cc(F)c(F)c(F)c2)nn1` (stereo not shown) [Example B2]: the IC50 worked out at 37 nM.
For `CC(=O)N1C[C@@H](S[C@@H]2O[C@H](CO)[C@H](O)[C@H](n3cc(-c4cc(F)c(F)c(F)c4)nn3)[C@H]2OCC(=O)O)[C@H](O)[C@@H](n2cc(-c3cccc(F)c3)nn2)C1` [Example B4, 2-(((2S,3R,4S,5R,6R)-2-(((3R,4R,5S)-1-acetyl-5-(4-(3-fluorophenyl)-1H-1,2,3-triazol-1-yl)-4-hydroxypiperidin-3-yl)thio)-5-hydroxy-6-(hydroxymethyl)-4-(4-(3,4,5-trifluorophenyl)-1H-1,2,3-triazol-1-yl)tetrahydro-2H-pyran-3-yl)oxy)acetic acid], the IC50 is 32 nM.
For `CO[C@@H]1[C@@H](n2cc(-c3nccs3)nn2)[C@@H](O)[C@@H](CO)O[C@H]1S[C@@H]1COC[C@H](n2cc(-c3ccccc3)nn2)[C@H]1O` [Example A5, (2R,3R,4S,5R,6S)-6-(((3R,4R,5S)-4-hydroxy-5-(4-phenyl-1H-1,2,3-triazol-1-yl)tetrahydro-2H-pyran-3-yl)thio)-2-(hydroxymethyl)-5-methoxy-4-(4-(thiazol-2-yl)-1H-1,2,3-triazol-1-yl)tetrahydro-2H-pyran-3-ol], the IC50 was found to be 490 nM.
On to `COC(=O)C12CCC(c3cn(C4C(O)C(CO)OC(SC5COCC(n6cc(-c7ccccc7)nn6)C5O)C4OC)nn3)(CC1)CC2` [Example A11, methyl 4-(1-((2R,3R,4S,5R,6S)-3-hydroxy-6-(((3R,4R,5S)-4-hydroxy-5-(4-phenyl-1H)-1,2,3-triazol-1-yl)tetrahydro-2H-pyran-3-yl)thio)-2-(hydroxymethyl)-5-methoxytetrahydro-2H-pyran-4-yl)-1H-1,2,3-triazol-4-yl)bicyclo[2.2.2]octane-1-carboxylate], for which the 50% inhibitory concentration (IC50) was found to be 1860 nM.
As to `CO[C@@H]1[C@@H](n2cc(-c3ccc(-c4ccccc4)cc3)nn2)[C@@H](O)[C@@H](CO)O[C@H]1S[C@@H]1COC[C@H](n2cc(-c3ccccc3)nn2)[C@H]1O` [Example A3, (2R,3R,4S,5R,6S)-4-(4-([1,1′-biphenyl]-4-yl)-1H-1,2,3-triazol-1-yl)-6-(((3R,4R,5S)-4-hydroxy-5-(4-phenyl-1H-1,2,3-triazol-1-yl)tetrahydro-2H-pyran-3-yl)thio)-2-(hydroxymethyl)-5-methoxytetrahydro-2H-pyran-3-ol], the IC50 came to 11000 nM.
